Measured values: the supplement of paper PMC10011410
± gives the standard deviation of the averaged measurements.

How the values were obtained:
U-2 OS [1] = test: total intracellular glutathione (GSH + GSSG) relative to DMSO (% of control); higher = more glutathione; settings: 24 h
How it was run: (§1)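 Luminescence readouts gave total glutathione and GSSG (GSH/GSSG-Glo) or viability (CellTiter-Glo), each on its own plates. Cells (U-2 OS, 750 per well, white low-volume 384-well plates) were dosed by pin tool 24 h after seeding, mostly at 20, 10 and 5 μM in 0.4% DMSO, and kept for 24 h at 37 °C. Results were corrected for background and row/column effects and expressed against vehicle or as a GSH:GSSG ratio. Five replicate plates were used.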

U-2 OS [2] = test: intracellular GSH:GSSG ratio (calculated); higher = more reduced glutathione pool; settings: 24 h
Description: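 Intracellular glutathione in U-2 OS cells after 24 h compound treatment at 5, 10 and 20 uM (some at 40 and 80 uM). Total glutathione and GSSG were measured with the GSH/GSSG-Glo kit, and the GSH:GSSG ratio was calculated. Mean of five technical replicate plates.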

U-2 OS [3] = test: AUC of culture confluence over time (live-cell imaging) (AUC (confluence % x time)); higher = more confluent culture (less growth inhibition)
How it was run: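 Each value is the area under a curve of confluence over time for U-2 OS cells. The cells, in F-12K medium with 10% FBS, were plated at 750 per well in 384-well plates and dosed by pin tool 24 h later, most compounds at 20, 10 and 5 μM with 0.2% DMSO. They were held at 37 °C and imaged every 4 h for up to 60 h.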

U-2 OS [4] = test: relative cell count vs DMSO (cell painting) (fraction of DMSO control); higher = more cells remaining (less cytotoxic); settings: 24 h
How it was run: (§2)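 Cell painting used U-2 OS cells at about 1,500 per well in 384-well plates, treated by pin tool for 24 h at 37 °C, usually at six 2-fold concentrations from 20 μM to 625 nM. Cells were stained with MitoTracker, concanavalin A, phalloidin, wheat germ agglutinin, Hoechst and SYTO 14 and imaged on an Opera Phenix. Features were extracted with CellProfiler and normalized to DMSO cells on the same plate. The activity score is the Mahalanobis distance from DMSO wells; cell count is relative to DMSO wells. Values are means of four replicate plates.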

U-2 OS [5] = test: cell painting activity score (Mahalanobis distance from DMSO wells); higher = stronger morphological phenotype; settings: 24 h
How it was run: as §2

U-2 OS [6] = test: cell viability (CellTiter-Glo) relative to DMSO (% of control); higher = more viable; settings: 24 h
How it was run: as §1

Compound	total intracellular glutathione (U-2 OS [1]; 5 µM)	total intracellular glutathione (U-2 OS [1]; 10 µM)	total intracellular glutathione (U-2 OS [1]; 20 µM)	intracellular GSH:GSSG ratio (U-2 OS [2]; 5 µM)	intracellular GSH:GSSG ratio (U-2 OS [2]; 10 µM)	intracellular GSH:GSSG ratio (U-2 OS [2]; 20 µM)	AUC of culture confluence over time (U-2 OS [3]; 5 µM)	AUC of culture confluence over time (U-2 OS [3]; 10 µM)	AUC of culture confluence over time (U-2 OS [3]; 20 µM)	relative cell count (U-2 OS [4]; 0.625 µM)	relative cell count (U-2 OS [4]; 1.25 µM)	relative cell count (U-2 OS [4]; 2.5 µM)	relative cell count (U-2 OS [4]; 5 µM)	relative cell count (U-2 OS [4]; 10 µM)	relative cell count (U-2 OS [4]; 20 µM)	cell painting activity score (U-2 OS [5]; 0.625 µM)	cell painting activity score (U-2 OS [5]; 1.25 µM)	cell painting activity score (U-2 OS [5]; 2.5 µM)	cell painting activity score (U-2 OS [5]; 5 µM)	cell painting activity score (U-2 OS [5]; 10 µM)	cell painting activity score (U-2 OS [5]; 20 µM)	cell viability (U-2 OS [6]; 5 µM)	cell viability (U-2 OS [6]; 10 µM)	cell viability (U-2 OS [6]; 20 µM)	total intracellular glutathione (U-2 OS [1]; 40 µM)	total intracellular glutathione (U-2 OS [1]; 80 µM)	intracellular GSH:GSSG ratio (U-2 OS [2]; 40 µM)	intracellular GSH:GSSG ratio (U-2 OS [2]; 80 µM)	AUC of culture confluence over time (U-2 OS [3]; 40 µM)	AUC of culture confluence over time (U-2 OS [3]; 80 µM)	relative cell count (U-2 OS [4]; 40 µM)	relative cell count (U-2 OS [4]; 80 µM)	cell painting activity score (U-2 OS [5]; 40 µM)	cell painting activity score (U-2 OS [5]; 80 µM)	cell viability (U-2 OS [6]; 40 µM)	cell viability (U-2 OS [6]; 80 µM)	relative cell count (U-2 OS [4]; 0.15624 µM)	relative cell count (U-2 OS [4]; 0.3124 µM)	cell painting activity score (U-2 OS [5]; 0.15624 µM)	cell painting activity score (U-2 OS [5]; 0.3124 µM)
O=C1CCC(=O)N1c1ccc(O)cc1	105 ± 13	87.4 ± 4.5	102 ± 5.2	43	32.2	56.3	48.1	42.4	43.3	1.02	0.976	0.966	0.904	1.03	1.04	4.12	3.43	3.81	3.52	4.26	2.95	107 ± 6.3	106 ± 7.5	105 ± 5.4	–	–	–	–	–	–	–	–	–	–	–	–	–	–	–	–
CCCCCOc1ccc(/C=C\c2cccc(O)c2C(=O)O)cc1	75.1 ± 6.4	69.9 ± 7	81.1 ± 8.2	21.5	17.6	21.8	38.6	40.9	46.8	0.986	0.944	0.908	0.973	1.05	0.952	5.46	4.75	3.23	3.6	4.31	4.17	106 ± 3.3	97.9 ± 5.9	106 ± 6.7	78.4 ± 6.4	76.9 ± 9.8	14.2	35.3	34.2	44.5	0.501	0.24	6.92	17.3	104 ± 5.3	99 ± 5.7	–	–	–	–
COc1ccc(N2C(=O)CC(Sc3nnc(-c4ccccc4)o3)C2=O)cc1 (stereo not drawn)	97.4 ± 5.6	97.1 ± 17	20 ± 8	26.4	14.5	4.1	24.5	11.3	11.9	1.1	1.07	1.16	1.08	1.1	0.796	2.96	3.59	3.44	4.49	6.07	11.5	105 ± 6.2	91.8 ± 19	9.21 ± 6.6	–	–	–	–	–	–	–	–	–	–	–	–	–	–	–	–
CCN1CCN(c2ccc3nsnc3c2[N+](=O)[O-])CC1	100 ± 6.2	98.1 ± 3.7	91.3 ± 3.3	16.2	18.8	13.3	45	46.2	42.9	0.938	0.946	0.945	0.908	0.929	0.955	3.95	4.39	4.69	6.21	4.95	5.29	105 ± 5.4	103 ± 4.1	106 ± 5.4	–	–	–	–	–	–	–	–	–	–	–	–	–	–	–	–
CC1(C)CCC2=C(O1)c1ccccc1C(=O)C2=O	71.8 ± 4.9	56.2 ± 3.8	6.31 ± 1.1	15.5	11.1	3.75	27	19.8	20.1	1.05	0.993	1.08	0.933	0.767	0.227	3.9	4.86	5.01	5.34	9.42	18.4	79.8 ± 7.4	57 ± 15	17 ± 33	–	–	–	–	–	–	–	–	–	–	–	–	–	–	–	–
O=S1(=O)CC(N2CCCC2)c2ccccc21 (stereo not drawn)	97.6 ± 3.1	98.8 ± 6.1	102 ± 5.3	30.8	37.7	28.5	49.4	–	–	0.972	0.969	0.957	0.962	–	–	5.04	4.39	4.11	3.43	–	–	103 ± 3.5	103 ± 6.5	109 ± 6.8	–	–	–	–	–	–	–	–	–	–	–	–	0.962	0.979	4.13	3.66
O=[N+]([O-])c1cc(Br)c2nsnc2c1Sc1ncnc2nc[nH]c12	56.4 ± 8.3	34.6 ± 12	7.7 ± 3.1	9.74	2.76	4.35	12.5	14.1	18	0.89	0.788	0.814	0.205	0.0623	0.0543	5.04	8.02	7.08	16.2	17.9	17.8	29.6 ± 6.5	6.03 ± 3.7	0.936 ± 0.27	–	–	–	–	–	–	–	–	–	–	–	–	–	–	–	–
